{"source": "patent US20160137630A1", "about": "“INDUCTION OF GATA2 BY HDAC1 AND HDAC2 INHIBITORS” (ACETYLON PHARMACEUTICALS, INC., priority 2014, published 2016)", "key": {"[1]": {"target": "T1, HDAC2 (Homo sapiens, UniProt Q92769)", "T1 sequence (Q92769 whole entry)": "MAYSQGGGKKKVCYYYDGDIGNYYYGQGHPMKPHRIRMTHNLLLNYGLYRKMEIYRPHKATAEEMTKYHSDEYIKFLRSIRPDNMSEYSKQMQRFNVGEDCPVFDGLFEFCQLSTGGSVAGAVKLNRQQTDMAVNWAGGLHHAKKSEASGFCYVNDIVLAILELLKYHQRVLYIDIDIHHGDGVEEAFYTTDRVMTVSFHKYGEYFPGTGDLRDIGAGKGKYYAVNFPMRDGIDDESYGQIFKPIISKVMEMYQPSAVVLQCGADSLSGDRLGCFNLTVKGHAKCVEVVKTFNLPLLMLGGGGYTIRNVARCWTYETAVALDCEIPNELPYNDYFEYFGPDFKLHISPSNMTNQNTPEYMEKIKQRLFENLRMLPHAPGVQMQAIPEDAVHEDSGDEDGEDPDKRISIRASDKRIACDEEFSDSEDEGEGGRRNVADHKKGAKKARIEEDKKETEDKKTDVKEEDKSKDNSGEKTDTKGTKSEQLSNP", "assay": "in vitro biochemical HDAC inhibition assay"}, "[2]": {"target": "HDAC3 (Homo sapiens, UniProt O15379)", "sequence (O15379 whole entry)": "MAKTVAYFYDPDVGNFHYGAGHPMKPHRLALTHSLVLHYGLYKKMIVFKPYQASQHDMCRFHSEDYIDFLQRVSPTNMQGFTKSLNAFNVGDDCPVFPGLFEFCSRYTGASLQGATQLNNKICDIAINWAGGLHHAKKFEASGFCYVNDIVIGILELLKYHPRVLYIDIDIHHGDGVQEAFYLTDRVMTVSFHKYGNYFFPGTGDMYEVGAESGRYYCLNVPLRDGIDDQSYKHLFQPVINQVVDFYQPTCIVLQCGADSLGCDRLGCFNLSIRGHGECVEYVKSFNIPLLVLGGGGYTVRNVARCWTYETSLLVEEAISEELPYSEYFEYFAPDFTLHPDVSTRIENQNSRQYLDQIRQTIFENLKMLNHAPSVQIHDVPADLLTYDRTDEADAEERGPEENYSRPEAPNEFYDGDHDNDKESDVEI", "sequence (Q9Y618 395-489 partner limits assumed)": "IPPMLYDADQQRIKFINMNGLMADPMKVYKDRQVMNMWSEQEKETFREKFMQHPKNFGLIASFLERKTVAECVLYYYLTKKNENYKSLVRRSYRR", "assay": "in vitro biochemical HDAC inhibition assay"}, "[3]": {"tested_on": "HDACs 4-9", "assay": "in vitro HDAC inhibition assay, HDACs 4-9", "format": "biochemical", "settings": "concentrations as high as 20 μM; FIG. 20"}, "[4]": {"tested_on": "CD34+ bone marrow cells undergoing erythroid differentiation", "assay": "Affymetrix GeneChip mRNA expression profiling", "format": "cell-based, human", "text": "The knockdown results were derived from an independent analysis of publically available raw data (Bradner et al., “Chemical genetic strategy identifies histone deacetylase 1 (HDAC1) and HDAC2 as therapeutic targets in sickle cell disease”, PNAS, vol. 107(28), pp. 12617-22 (2010)) and detection of mRNA by Affymetrix GeneChip.\nAmong the genes differentially regulated by both pharmacological inhibition and genetic ablation of HDAC1/2 were Bcl11a and Sox6, known HbG repressors, and Gata2, a potential HbG activator.\nThen, the cells were differentiated by exposure to either vehicle (control) or Compound 001. FACS was performed at day 5. […] GlyA.\nThe mechanism through which HDAC1/2 inhibition induces HbG by performing gene expression profiling was interrogated. Because HDAC inhibition prevented cells from fully upregulating GlyA (FIG. 19E), RNA was isolated at day 5 of differentiation, a time point prior to the observed differentiation block.\nNext, using the GeneChip data, a candidate gene approach was taken to determine which HbG modulators were changing as a result of both chemical and genetic HDAC1/2 inhibition (FIG. 1A). […] In contrast, other HbG repressors, such as Myb and Klf1 were unaffected. Expression changes were not observed for other genes involved in HbG regulation, including KDM1A (LSD1), NR2C1 (TR2) and NR2C2 (TR4), NR2F2 (COUP-TFII) and nuclear factor Y subunits, and proteins known to associate with Bcl11a12 (data not shown)."}, "[5]": {"tested_on": "HbG mRNA", "assay": "% HbG mRNA induction in 2-phase culture systems CS1 and CS2", "format": "cell-based, human", "text": "Then, the cells were differentiated by exposure to either vehicle (control) or Compound 001. RNA samples of HbG were taken at days 0, 3, 5, and 8. […] Staining cells with a FITC-conjugated anti-HbF antibody and flow cytometry was used to measure induction of fetal hemoglobin."}, "[6]": {"tested_on": "sickle donor cells", "assay": "HbG induction in sickle donor cells", "format": "cell-based", "settings": "peripheral blood mononuclear cells from four different donors; FIG. 11B", "text": "Then, the cells from each donor were differentiated by exposure to either vehicle (control) or Compound 001. RNA samples of HbG were taken from each group of donor cells at days 0, 3, and 5."}, "[7]": {"tested_on": "human bone marrow-derived CD34+ cells", "assay": "viability of expanded CD34+ cells", "format": "cell-based", "settings": "2 days of treatment", "text": "This possibility was first tested by measuring the viability of expanded human bone marrow-derived CD34+ cells, composed of primitive and more differentiated hematopoietic progenitors of multiple lineages, following 2 days of treatment with compound."}, "[8]": {"tested_on": "Human CD34+ bone marrow cells", "assay": "erythroid maturation in CS1 by CD71/GlyA flow cytometry", "format": "cell-based", "settings": "1 μM", "text": "To investigate the effects of HDAC inhibition on later stages of erythroid maturation, differentiation in CS1 was followed by flow cytometry using fluorescent antibodies against the transferrin receptor (CD71) and glycophorin A (GlyA). […] The majority of vehicle control cells continued to differentiate, becoming CD71^posGlyA^pos by day 8. […] CD71^posGlyA^mid cells are equivalent to proerythroblasts (ProE), while CD71^posGlyA^pos cells include the more differentiated basophilic and polychromatic erythroblasts."}, "[9]": {"tested_on": "HbD promoter", "assay": "Gata2 binding at the β-like globin gene cluster (ChIP-seq, ChIP-QPCR)", "format": "cell-based", "text": "The tight temporal correlation between Gata2 and HbG activation following HDAC1/2 inhibition argues that Gata2 may affect the beta-globin locus directly. […] In FIG. 8C, the ChIP-seq results in FIG. 8A were validated in a second experimental series using QRT-PCR and two primer sets directed to the delta globin promoter. A primer set at the beta globin promoter was used as a control. […] This region is suspected in playing a role in switching from fetal to adult globin during development, as naturally occurring deletions of this region are associated with elevated fetal hemoglobin in adults (Sankaran V G, Xu J, Byron R, et al. A functional element necessary for fetal hemoglobin silencing. The New England journal of medicine. 2011; 365(9):807-814.).\nTo investigate this possibility, the β-like globin gene cluster was looked at in the Gata2 ChIP-seq data described above."}, "[10]": {"assay": "blood cell counts in rats", "format": "in vivo", "settings": "rat", "description": "I. A. Rats were dosed once daily by oral gavage for 6 consecutive days at 0 mg/kg, 10 mg/kg, or 30 mg/kg per dose (See FIG. 25A). Dosing days are indicated by a down arrow (FIG. 25A). Peripheral blood was drawn on the indicated days and analyzed for drug level in plasma (PK), complete blood counts (CBC), or isolation of total ribonucleic acid (RNA). […] For each individual rat, white blood cell counts were expressed relative to their predose level (time=day 0). Points are the average of n=4 animals with error bars showing the standard deviation."}, "[11]": {"tested_on": "histone acetylation (H3K9/14ac, H3K56ac, H3K79ac, H2BK5ac)", "assay": "histone acetylation levels by western blot", "settings": "1 and 5 μM, FIG. 9B"}, "[12]": {"target": "T1, HDAC2"}, "[13]": {"settings": "Compound 001 1 μM vs vehicle, day 5"}}, "note": "Entries after “also recorded” stand apart in the source; their conditions may differ. Like-named read-outs stand apart in the source and are kept apart here."}
{"smiles": "Nc1ccc(-c2cccs2)cc1NC(=O)c1ccc2nc(N3CCNCC3)ccc2c1", "note": "[Compound 001, N-(2-amino-5-(thiophen-2-yl)phenyl)-2-(piperazin-1-yl)quinoline-6-carboxamide]", "values": [{"measurement": "IC50", "setting": "[1]; Table 2, read-out: IC50 HDAC2", "value": 15, "unit": "nM"}, {"measurement": "IC50", "setting": "[1]; pre-incubation time of 24 hours, FIG. 9A, 17B, read-out: IC50 against HDAC2", "value": 18, "unit": "nM"}, {"measurement": "selectivity over HDAC3", "setting": "[2]", "value": "approximately 100 fold"}, {"measurement": "IC50", "setting": "[2]; Table 2, read-out: IC50 HDAC3", "value": 114, "unit": "nM"}, {"measurement": "IC50", "setting": "[2]; pre-incubation time of 24 hours, FIG. 9A, 17B, read-out: IC50 against HDAC3", "value": 1300, "unit": "nM"}, {"measurement": "inhibition of HDACs 4-9", "setting": "[3]", "value": "negligible inhibitory activity; also recorded: no inhibition"}, {"measurement": "candidate gene expression ratio Bcl11a", "setting": "[4]; [13]", "value": 0.8}, {"measurement": "candidate gene expression ratio Gata1", "setting": "[4]; [13]", "value": 1.0}, {"measurement": "candidate gene expression ratio Gata2", "setting": "[4]; [13]", "value": 2.8}, {"measurement": "candidate gene expression ratio KLF1", "setting": "[4]; [13]", "value": 0.9}, {"measurement": "candidate gene expression ratio Myb", "setting": "[4]; [13]", "value": 1.1}, {"measurement": "candidate gene expression ratio Sox6", "setting": "[4]; [13]", "value": 0.4}, {"measurement": "Bcl11a down-regulation", "setting": "[4]; GeneChip, FIG. 1A", "value": 1.3, "unit": "fold"}, {"measurement": "Gata2 up-regulation", "setting": "[4]; GeneChip, FIG. 1A", "value": 2.8, "unit": "fold"}, {"measurement": "Klf1 expression change", "setting": "[4]; GeneChip, FIG. 1A", "value": "unaffected"}, {"measurement": "Myb expression change", "setting": "[4]; GeneChip, FIG. 1A", "value": "unaffected"}, {"measurement": "Sox6 down-regulation", "setting": "[4]; GeneChip, FIG. 1A", "value": 2.5, "unit": "fold"}, {"measurement": "% HbG", "setting": "[5]; 1 μM, increased from 10%", "value": 46, "unit": "%"}, {"measurement": "induction in % HbG", "setting": "[5]; differentiation phase, both culture systems, FIG. 10B, 21A-C", "value": "dose- and time-dependent induction"}, {"measurement": "HbG", "setting": "[6]", "value": "induced HbG"}, {"measurement": "fold less cytotoxic than Entinostat", "setting": "[7]", "value": 10, "unit": "fold"}, {"measurement": "IC50", "setting": "[7]; Homo sapiens, 48 h, FIG. 19A", "value": 45000, "unit": "nM"}, {"measurement": "erythroid differentiation (CD71/GlyA)", "setting": "[8]; by day 8", "value": "block differentiation of proerythroblasts to basophilic erythroblasts"}, {"measurement": "erythroid differentiation (CD71/GlyA)", "setting": "[8]; first 5 days", "value": "differentiated normally"}, {"measurement": "increase in Gata2 binding at the HbD promoter region", "setting": "[9]; ChIP-seq", "value": 1.8, "unit": "fold"}, {"measurement": "increase in Gata2 binding at the HbD promoter", "setting": "[9]; independent ChIP-QPCR experiment", "value": 2, "unit": "fold"}, {"measurement": "RBC or platelets", "setting": "[10]", "value": "no detected affect"}, {"measurement": "time of peak white blood cell suppression after the last dose", "setting": "[10]", "value": 1, "unit": "days"}, {"measurement": "time to recovery of white blood cell counts to baseline after the last dose", "setting": "[10]", "value": 5, "unit": "days"}, {"measurement": "white blood cells", "setting": "[10]; 10 or 30 mg/kg for 6 days", "value": "reversible suppression"}, {"measurement": "histone acetylation (H3K9/14ac, H3K56, H3K79ac, H2BK5ac)", "setting": "[11]", "value": "dose-dependent accumulation of acetylation"}, {"measurement": "IC50", "setting": "[12]", "value": 42, "unit": "nM"}]}
